The text below walks through data of patent publication US9282741B2, “Aniline type compounds” (BASF SE, priority 2011, dated 2016).

Data set [1] is described as follows: log P determination via capillary electrophorese (cePro9600). Type of data set: physicochemical. To be noted: pH = 10.0. How it is done: log P determinations were performed via capillary electrophorese on a cePro9600™ from CombiSep.
In data set [2] the test system is vetch aphid (Megoura viciae). Kind of data set: Vetch aphid (Megoura viciae) broad bean leaf disk microtiter test. Type of data set: in vivo. As to conditions: 1415 ppm; broad bean leaf disks; 5 days. How it is done:
B.2 Vetch Aphid (Megoura viciae)
For evaluating control of vetch aphid (Megoura viciae) through contact or systemic means the test unit consists of 24-well-microtiter plates containing broad bean leaf disks.
The compounds are formulated using a solution containing 75% v/v water and 25% v/v DMSO. Different concentrations of formulated compounds are sprayed onto the leaf disks at 2.5 μl, using a custom built micro atomizer, at two replications.
After application, the leaf disks are air-dried and 5-8 adult aphids placed on the leaf disks inside the microtiter plate wells. The aphids are then allowed to suck on the treated leaf disks and incubated at about […] and about 50±5% relative humidity for 5 days. Aphid mortality and fecundity is then visually assessed.

The subject of data set [3] is Tobacco Budworm (Heliothis virescens). Kind of data set: Tobacco budworm (Heliothis virescens) I, foliar spray on cotton plants. Type of data set: in vivo. To be noted: 800 ppm, 4 days after treatment. How it is done: B.3 Tobacco Budworm (Heliothis virescens) I
The active compounds are formulated in cyclohexanone as a 10,000 ppm solution supplied in tubes. The tubes are inserted into an automated electrostatic sprayer equipped with an atomizing nozzle and they serve as stock solutions for which lower dilutions are made in 50% acetone:50% water (v/v). A nonionic surfactant (Kinetic®) is included in the solution at a volume of 0.01% (v/v).
Cotton plants are grown 2 plants to a pot and selected for treatment at the cotyledon stage. Test solutions are sprayed onto the foliage by an automated electrostatic plant sprayer equipped with an atomizing spray nozzle. The plants are dried in the sprayer fume hood and then removed from the sprayer. Each pot is placed into perforated plastic bags with a zip closure. About 10 to 11 budworm larvae are placed into the bag and the bags zipped closed. Test plants are maintained in a growth room at about 250C and about 20-40% relative humidity for 4 days, avoiding direct exposure to fluorescent light (24 hour photoperiod) to prevent trapping of heat inside the bags. Mortality and reduced feeding are assessed 4 days after treatment, compared to untreated control plants.

Molecules are shown by their SMILES.

`CCCS(C)=NC(=O)c1cc(I)cc(C)c1NC(=O)c1cc(Br)nn1-c1ncccc1Cl` (racemic) [compound 272]: in data set [1], the logP result was “logP: 3.2 [pH = 10.0]”. On to `CCS(CC1CC1)=NC(=O)c1cc(Cl)cc(C)c1N` (centres unmarked) [S.9], for which, in data set [2], the “mortality in comparison with untreated controls” value is given as “over 75%”.

With `CCCS(CCC)=NC(=O)c1cc(Cl)cc(Cl)c1N` [S.22], the “mortality in comparison with untreated controls” value in data set [3] was “over 75%”. With `CCCS(C)=NC(=O)c1cc(Cl)cc(C)c1NC(=O)c1cc(C(F)(F)F)nn1-c1ncccc1Cl` (centres unmarked) [compound 11], in data set [1], the logP result is “logP: 3.2 [pH = 10.0]”. In the case of `Cc1cc(Cl)cc(C(=O)N=S(C(C)C)C(C)C)c1NC(=O)c1cc(C(F)(F)F)nn1-c1ncccc1Cl` [compound 24], the logP result in data set [1] is “logP: 3.3 [pH = 10.0]”.

As to `Cc1cc(I)cc(C(=O)N=S(C)C)c1NC(=O)c1cc(C(F)(F)F)nn1-c1ncccc1Cl` [compound 31], the logP entry in data set [1] is “logP: 3.2 [pH = 10.0];”.

For `CCS(C)=NC(=O)c1cc(I)cc(C)c1NC(=O)c1cc(C(F)(F)F)nn1-c1ncccc1Cl` (centres unmarked) [compound 33], the logP entry in data set [1] is “logP: 3.3 [pH = 10.0];”.

For `CCCCCS(CCO)=NC(=O)c1cc(Cl)cc(C)c1NC(=O)c1cc(C(F)(F)F)nn1-c1ncccc1Cl` (centres unmarked) [compound 48], the logP entry in data set [1] is “logP: 3.6 [pH = 10.0];”.

Regarding `Cc1cc(I)cc(C(=O)N=S2CCCCC2)c1NC(=O)c1cc(C(F)(F)F)nn1-c1ncccc1Cl` [compound 71], the logP entry in data set [1] was “logP: 3.6 [pH = 10.0];”. Still for that read-out and setting: in the case of `CCCS(C)=NC(=O)c1cc(I)cc(C)c1NC(=O)c1cc(C(F)(F)F)nn1-c1ncccc1Cl` (centres unmarked) [compound 93] it was “logP: 3.6 [pH = 10.0];”; in that of `Cc1cc(Cl)cc(C(=O)N=S(C)C)c1NC(=O)c1cc(C(F)(F)F)nn1-c1ncccc1Cl` [compound 110], “logP: 2.9 [pH = 10.0];”. The same measure, in the same setting: the same measure for `CCCCCS(CCO)=NC(=O)c1cc(I)cc(C)c1NC(=O)c1cc(C(F)(F)F)nn1-c1ncccc1Cl` (centres unmarked) [compound 113]: “logP: 3.9 [pH = 10.0];”. Still for that read-out and setting: in the case of `Cc1cc(I)cc(C(=O)N=S(C(C)C)C(C)C)c1NC(=O)c1cc(C(F)(F)F)nn1-c1ncccc1Cl` [compound 120] it was “logP: 3.4 [pH = 10.0];”; in that of `Cc1cc(I)cc(C(=O)N=S2CCSC2)c1NC(=O)c1cc(C(F)(F)F)nn1-c1ncccc1Cl` (centres unmarked) [compound 129], “logP: 3.5 [pH = 10.0];”; in that of `Cc1cc(I)cc(C(=O)N=S2CCCC2)c1NC(=O)c1cc(C(F)(F)F)nn1-c1ncccc1Cl` [compound 137], “logP: 3.1 [pH = 10.0];”. In the case of `CCS(C)=NC(=O)c1cc(Cl)cc(C)c1NC(=O)c1cc(C(F)(F)F)nn1-c1ncccc1Cl` (centres unmarked) [compound 152], in data set [1], the logP entry is “logP: 2.9 [pH = 10.0];”. The same measure, in the same setting: the same measure for `C#CCOc1cc(C(=O)Nc2c(C)cc(I)cc2C(=O)N=S(CCO)CCCCC)n(-c2ncccc2Cl)n1` (centres unmarked) [compound 195]: “logP: 3.5 [pH = 10.0]”; for `C#CCOc1cc(C(=O)Nc2c(C)cc(I)cc2C(=O)N=S(C(C)C)C(C)C)n(-c2ncccc2Cl)n1` [compound 196]: “logP: 3.1 [pH = 10.0]”; for `C#CCOc1cc(C(=O)Nc2c(C)cc(Cl)cc2C(=O)N=S(C(C)C)C(C)C)n(-c2ncccc2Cl)n1` [compound 197]: “logP: 2.7 [pH = 10.0]”. On the same count and under the same terms, the same measure for `Cc1cccc(C(=O)N=S(C)C)c1NC(=O)c1cc(C(F)(F)F)nn1-c1ncccc1Cl` [compound 199]: “logP: 2.2 [pH = 10.0];”. Same read-out and setting: in the case of `C#CCOc1cc(C(=O)Nc2c(C)cc(Cl)cc2C(=O)N=S2CCSC2)n(-c2ncccc2Cl)n1` (centres unmarked) [compound 200] it was “logP: 2.5 [pH = 10.0]”; in that of `C#CCOc1cc(C(=O)Nc2c(C)cc(Cl)cc2C(=O)N=S(C)c2ccc(F)cc2)n(-c2ncccc2Cl)n1` (centres unmarked) [compound 201], “logP: 2.9 [pH = 10.0]”.

As for `C#CCOc1cc(C(=O)Nc2c(C)cc(I)cc2C(=O)N=S(C)c2ccc(F)cc2)n(-c2ncccc2Cl)n1` (centres unmarked) [compound 204], in data set [1], the logP entry is “logP: 3.4 [pH = 10.0]”. For the molecule `C#CCOc1cc(C(=O)Nc2c(C)cc(Cl)cc2C(=O)N=S2CCCCC2)n(-c2ncccc2Cl)n1` [compound 209], the logP entry in data set [1] is “logP: 2.8 [pH = 10.0]”. Turning to `CCS(C)=NC(=O)c1cccc(C)c1NC(=O)c1cc(C(F)(F)F)nn1-c1ncccc1Cl` (centres unmarked) [compound 210], in data set [1], the logP entry was “logP: 2.5 [pH = 10.0];”. For `CCCS(C)=NC(=O)c1cccc(C)c1NC(=O)c1cc(C(F)(F)F)nn1-c1ncccc1Cl` (centres unmarked) [compound 211], in data set [1], the logP entry was “logP: 2.8 [pH = 10.0];”. On the same count and under the same terms, the same measure for `CCCCCS(CCO)=NC(=O)c1cccc(C)c1NC(=O)c1cc(C(F)(F)F)nn1-c1ncccc1Cl` (centres unmarked) [compound 213]: “logP: 3.4 [pH = 10.0];”; for `Cc1cccc(C(=O)N=S(C(C)C)C(C)C)c1NC(=O)c1cc(C(F)(F)F)nn1-c1ncccc1Cl` [compound 214]: “logP: 2.7 [pH = 10.0];”; for `Cc1cccc(C(=O)N=S(C)c2ccc(F)cc2)c1NC(=O)c1cc(C(F)(F)F)nn1-c1ncccc1Cl` (centres unmarked) [compound 215]: “logP: 3.2 [pH = 10.0];”. As for `C#CCOc1cc(C(=O)Nc2c(C)cc(Cl)cc2C(=O)N=S(CCO)CCCCC)n(-c2ncccc2Cl)n1` (centres unmarked) [compound 216], the logP result in data set [1] is “logP: 3.3 [pH = 10.0]”. Still for that read-out and setting: the same measure for `Cc1cc(I)cc(C(=O)N=S2CCSC2)c1NC(=O)c1cc(Br)nn1-c1ncccc1Cl` (centres unmarked) [compound 221]: “logP: 3.3 [pH = 10.0];”; for `Cc1cccc(C(=O)N=S2CCCC2)c1NC(=O)c1cc(Br)nn1-c1ncccc1Cl` [compound 222]: “logP: 2.1 [pH = 10.0]”; for `CCS(C)=NC(=O)c1cc(I)cc(C)c1NC(=O)c1cc(Br)nn1-c1ncccc1Cl` (centres unmarked) [compound 223]: “logP: 3.1 [pH = 10.0];”.

As for `CCS(C)=NC(=O)c1cc(Cl)cc(C)c1NC(=O)c1cc(Br)nn1-c1ncccc1Cl` (centres unmarked) [compound 224], the logP entry in data set [1] was “logP: 2.7 [pH = 10.0];”. Still for that read-out and setting: in the case of `Cc1cc(Cl)cc(C(=O)N=S(C)c2ccc(F)cc2)c1NC(=O)c1cc(Br)nn1-c1ncccc1Cl` (centres unmarked) [compound 235] it was “logP: 3.2 [pH = 10.0];”. Same read-out and setting: the same measure for `Cc1cccc(C(=O)N=S(C(C)C)C(C)C)c1NC(=O)c1cc(Br)nn1-c1ncccc1Cl` [compound 236]: “logP: 2.3 [pH = 10.0];”; for `Cc1cccc(C(=O)N=S(C)c2ccc(F)cc2)c1NC(=O)c1cc(Br)nn1-c1ncccc1Cl` (centres unmarked) [compound 237]: “logP: 2.7 [pH = 10.0];”; for `Cc1cc(I)cc(C(=O)N=S(C)c2ccc(F)cc2)c1NC(=O)c1cc(Br)nn1-c1ncccc1Cl` (centres unmarked) [compound 238]: “logP: 3.5 [pH = 10.0];”. As to `CCCS(C)=NC(=O)c1cc(Cl)cc(C)c1NC(=O)c1cc(Br)nn1-c1ncccc1Cl` (centres unmarked) [compound 242], the logP result in data set [1] was “logP: 2.9 [pH = 10.0];”. For the molecule `Cc1cc(Cl)cc(C(=O)N=S(C(C)C)C(C)C)c1NC(=O)c1cc(Br)nn1-c1ncccc1Cl` [compound 243], the logP result in data set [1] was “logP: 2.9 [pH = 10.0]”. Consider `Cc1cc(I)cc(C(=O)N=S2CCCC2)c1NC(=O)c1cc(Br)nn1-c1ncccc1Cl` [compound 246], for which the logP result in data set [1] was “logP: 2.9 [pH = 10.0];”. The same measure, in the same setting: in the case of `CCCCCS(CCO)=NC(=O)c1cccc(C)c1NC(=O)c1cc(Br)nn1-c1ncccc1Cl` (centres unmarked) [compound 250] it was “logP: 2.9 [pH = 10.0]”. Still for that read-out and setting: the same measure for `CCCCCS(CCO)=NC(=O)c1cc(I)cc(C)c1NC(=O)c1cc(Br)nn1-c1ncccc1Cl` (centres unmarked) [compound 252]: “logP: 3.7 [pH = 10.0]”; for `Cc1cc(I)cc(C(=O)N=S(C(C)C)C(C)C)c1NC(=O)c1cc(Br)nn1-c1ncccc1Cl` [compound 257]: “logP: 3.3 [pH = 10.0];”. `CCCCCS(CCO)=NC(=O)c1cc(Cl)cc(C)c1NC(=O)c1cc(Br)nn1-c1ncccc1Cl` (centres unmarked) [compound 258]: the logP entry in data set [1] was “logP: 3.4 [pH = 10.0];”. The same measure, in the same setting: the same measure for `C=CS(CC)=NC(=O)c1cccc(C)c1NC(=O)c1cc(Br)nn1-c1ncccc1Cl` (centres unmarked) [compound 261]: “logP: 2.1 [pH = 10.0];”; for `CCCS(C)=NC(=O)c1cccc(C)c1NC(=O)c1cc(Br)nn1-c1ncccc1Cl` (centres unmarked) [compound 263]: “logP: 2.3 [pH = 10.0];”. Take `Cc1cc(I)cc(C(=O)N=S2CCCCC2)c1NC(=O)c1cc(Br)nn1-c1ncccc1Cl` [compound 267]: the logP result in data set [1] was “logP: 3.4 [pH = 10.0];”.

As for `CCS(CCCl)=NC(=O)c1cc(I)cc(C)c1NC(=O)c1cc(Br)nn1-c1ncccc1Cl` (centres unmarked) [compound 268], the logP entry in data set [1] is “logP: 3.2 [pH = 10.0];”. Turning to `Cc1cccc(C(=O)N=S(C)C)c1NC(=O)c1cc(Br)nn1-c1ncccc1Cl` [compound 274], in data set [1], the logP result was “logP: 1.9 [pH = 10.0];”.
